Reference: ChEMBL document CHEMBL1156798, “Structural conservation in band 4.1, ezrin, radixin, moesin (FERM) domains as a guide to identify inhibitors of the proline-rich tyrosine kinase 2” (J Med Chem, 2010)
Calls of active or inactive are those of the source.

Target: Protein-tyrosine kinase 2-beta (Homo sapiens) (UniProt Q14289)
Assay: Inhibition of Pyk2-mediated stimulation of human SF767 glioma cell migration at 5 uM by radial migration assay relative to control
Settings: not given

Protein-tyrosine kinase 2-beta (Homo sapiens), sequence (Q14289 whole entry, looked up, the tested form may be a part): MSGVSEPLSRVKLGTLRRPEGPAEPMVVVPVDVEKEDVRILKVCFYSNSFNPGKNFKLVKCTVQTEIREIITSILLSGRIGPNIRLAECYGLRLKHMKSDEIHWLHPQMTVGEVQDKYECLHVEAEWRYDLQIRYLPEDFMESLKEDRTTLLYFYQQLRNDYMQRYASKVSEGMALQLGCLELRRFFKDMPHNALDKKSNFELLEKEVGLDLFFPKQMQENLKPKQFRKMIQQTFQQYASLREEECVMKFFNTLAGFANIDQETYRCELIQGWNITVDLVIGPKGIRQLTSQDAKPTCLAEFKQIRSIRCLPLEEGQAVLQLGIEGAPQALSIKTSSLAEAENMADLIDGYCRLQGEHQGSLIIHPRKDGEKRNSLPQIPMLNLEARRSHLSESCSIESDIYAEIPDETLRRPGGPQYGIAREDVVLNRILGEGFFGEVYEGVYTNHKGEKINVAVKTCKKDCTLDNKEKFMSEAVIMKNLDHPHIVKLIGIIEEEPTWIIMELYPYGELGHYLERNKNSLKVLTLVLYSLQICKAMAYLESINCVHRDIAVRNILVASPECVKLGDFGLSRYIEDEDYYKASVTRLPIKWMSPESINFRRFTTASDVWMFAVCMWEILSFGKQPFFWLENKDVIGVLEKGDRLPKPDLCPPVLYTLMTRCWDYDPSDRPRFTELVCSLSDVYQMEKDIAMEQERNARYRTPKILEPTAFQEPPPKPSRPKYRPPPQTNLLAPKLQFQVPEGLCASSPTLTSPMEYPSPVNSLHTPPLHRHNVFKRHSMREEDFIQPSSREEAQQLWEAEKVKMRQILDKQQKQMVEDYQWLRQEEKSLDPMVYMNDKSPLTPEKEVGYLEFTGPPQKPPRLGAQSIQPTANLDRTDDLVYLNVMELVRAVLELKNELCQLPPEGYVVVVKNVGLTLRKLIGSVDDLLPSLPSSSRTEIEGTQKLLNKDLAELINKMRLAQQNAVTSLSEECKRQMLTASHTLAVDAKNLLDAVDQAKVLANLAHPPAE

inhibition [%]	Compound
50	C=CCOC(=O)NCCSc1nc2ccc(NC(=O)c3csnn3)cc2s1

Target: Protein-tyrosine kinase 2-beta (Homo sapiens) (UniProt Q14289)
Assay: Inhibition of Pyk2-mediated stimulation of human SF767 glioma cell migration at 50 uM by radial migration assay relative to control
Settings: not given

inhibition [%]	Compound
85	C=CCOC(=O)NCCSc1nc2ccc(NC(=O)c3csnn3)cc2s1

Target: Protein-tyrosine kinase 2-beta (Homo sapiens) (UniProt Q14289)
Assay: Binding affinity to human Pyk2 FERM domain by LC/MS depletion assay
Settings: not given

Activity	Compound
Active	C=CCOC(=O)NCCSc1nc2ccc(NC(=O)c3csnn3)cc2s1

Target: Protein-tyrosine kinase 2-beta (Homo sapiens) (UniProt Q14289)
Assay: Inhibition of HA-epitope-tagged Pyk2 FERM domain expressed in HEK293 cells assessed as inhibition of binding to 12A10 antibody by ELISA
Format: cell-based
Design: inhibition: concentration or dose not given beside the values
Settings: not given

Activity	Compound
inactive	C=CCOC(=O)NCCSc1nc2ccc(NC(=O)CNC(=O)OC)cc2s1
inactive	Cc1cccc(C)c1NC(=O)CN1CCCN(C(=O)CNC(=O)c2ccco2)CC1
inactive	C=CCOC(=O)NCCSc1nc2ccc(NC(=O)c3ccc([N+](=O)[O-])cc3F)cc2s1
inactive	Cc1cc(NS(=O)(=O)c2ccc3c(c2)CN(C(=O)C(F)(F)F)CC3)nc(C)n1
inactive	COc1ccc(C(N)=O)cc1NC(=O)c1csc(C2CCN(C(=O)C#Cc3ccccc3)CC2)n1
inactive	COc1ccc(C(=O)CCC(=O)N2CCC(c3nc(C(=O)Nc4cc(C(N)=O)ccc4OC)cs3)CC2)cc1
inactive	O=C(COc1ccccc1)NNC(=O)c1csc(C2CCN(C(=O)NCCC3=CCCCC3)CC2)n1
inactive	O=C(Nc1ccccc1N1CCOCC1)c1csc(C2CCN(C(=O)NCCC3=CCCCC3)CC2)n1
inactive	C=CCOC(=O)NCCSc1nc2ccc(NC(=O)Cc3ccc([N+](=O)[O-])cc3)cc2s1
inactive	COc1ccc(C(N)=O)cc1NC(=O)c1csc(C2CCN(C(=O)c3cnn(-c4ccccc4)c3C)CC2)n1
inactive	C#CC[C@H](NC(C)=O)C(=O)Nc1ccc2nc(SCCNC(=O)OCC=C)sc2c1
inactive	CCCOCCNC(=O)c1ccc(C)nc1C1CCN(C(=O)c2cc(NC(C)=O)ccc2O)CC1
inactive	COC(=O)c1ccc(NS(=O)(=O)c2ccc(NC(C)=O)c(Cl)c2)cc1OC
inactive	Cc1ccc(C(=O)Nc2nnc(C(C)(C)C)s2)c(C2CCN(C(=O)c3nc4ccccc4nc3O)CC2)n1
inactive	C=CCOC(=O)NCCSc1nc2ccc(NC(=O)[C@H]3CCCN3C(=O)c3cccs3)cc2s1
inactive	CN(C)c1ccc(NC(=S)N2CCC(c3nc(C(=O)NCCOc4ccccc4Cl)cs3)CC2)cc1
inactive	CC(=O)Nc1cccc(OCCCNC(=O)c2csc(C3CCN(C(=O)C4CCCCC4)CC3)n2)c1
inactive	CC(=O)Nc1ccc(S(=O)(=O)NNC(=O)Nc2c(C(C)C)cccc2C(C)C)cc1Cl
inactive	C=CCOC(=O)NCCSc1nc2ccc(NC(=O)c3c([N+](=O)[O-])c(C)nn3C)cc2s1
inactive	C=CCOC(=O)NCCSc1nc2ccc(NC(=O)CCn3c(=O)oc4ccccc43)cc2s1

Activity	Compound
inactive	O=C(N1CCc2ccc(S(=O)(=O)Nc3ccc(Cl)nn3)cc2C1)C(F)(F)F
inactive	C=CCOC(=O)NCCSc1nc2ccc(NC(=O)/C=C/c3ccc([N+](=O)[O-])o3)cc2s1
inactive	O=C(NNC(=O)[C@H]1CCCNC1=O)c1csc(C2CCN(C(=O)NCCC3=CCCCC3)CC2)n1
inactive	Cc1ccc(C(=O)NCCc2cccs2)c(C2CCN(C(=O)c3nc4ccccc4nc3O)CC2)n1
inactive	CCOC(=O)NNC(=O)c1csc(C2CCN(C(=O)Cc3c[nH]c4ccccc34)CC2)n1
inactive	COc1ccc(C(N)=O)cc1NC(=O)c1csc(C2CCN(C(=O)c3cc(OC)c4ccccc4n3)CC2)n1
inactive	O=C(NNC(=O)c1n[nH]c2ccccc12)c1csc(C2CCN(C(=O)NCCC3=CCCCC3)CC2)n1
inactive	CCCCNS(=O)(=O)c1cccc(NC(=O)CNC(=O)c2ccoc2)c1
inactive	C=CCOC(=O)NCCSc1nc2ccc(NC(=O)C3CCN(C(=O)c4ccccc4)CC3)cc2s1
inactive	N#Cc1c(Cl)cccc1Oc1ccc(S(=O)(=O)Nc2ccc(S(=O)(=O)Nc3ccccn3)cc2)cc1
inactive	CC(=O)Nc1ccc(O)c(C(=O)N2CCC(c3nc(C)ccc3C(=O)NCCc3cccs3)CC2)c1
inactive	COc1ccc(C(N)=O)cc1NC(=O)c1csc(C2CCN(C(=O)c3cc4ccccc4o3)CC2)n1
inactive	O=C(CN1CCCN(C(=O)CNC(=O)c2ccco2)CC1)NCCc1ccccc1
inactive	C=CCOC(=O)NCCSc1nc2ccc(NC(=O)C3(C#N)CC3)cc2s1
inactive	CN(C)c1ccc(NC(=S)N2CCC(c3nc(C(=O)NCCc4c[nH]c5ccc(F)cc45)cs3)CC2)cc1
inactive	C=CCOC(=O)NCCSc1nc2ccc(NC(=O)c3c(C)noc3C)cc2s1
inactive	CCOC(=O)c1nc(NC(=O)c2csc(C3CCN(C(=O)NCCC4=CCCCC4)CC3)n2)cn1C
inactive	C=CCOC(=O)NCCSc1nc2ccc(NC(=O)c3cc(NC(C)=O)cc(NC(C)=O)c3)cc2s1
inactive	Cc1nc(C)c(C(=O)NNC(=O)c2csc(C3CCN(C(=O)Cc4c[nH]c5ccccc45)CC3)n2)s1
inactive	O=C(CN1CCCN(C(=O)CNC(=O)C(F)(F)F)CC1)Nc1ccc(F)cc1F

Activity	Compound
inactive	C=CCOC(=O)NCCSc1nc2ccc(NC(=O)c3ccccc3S(C)(=O)=O)cc2s1
inactive	CCOc1ccccc1CNC(=O)c1ccc(C)nc1C1CCN(C(=O)/C=C/c2cccc(O)c2)CC1
inactive	C=CCOC(=O)NCCSc1nc2ccc(NC(=O)c3coc4c3C(=O)CCC4)cc2s1
inactive	C=CCOC(=O)NCCSc1nc2ccc(NC(=O)c3cccc(C#N)c3)cc2s1
inactive	C=CCOC(=O)NCCSc1nc2ccc(NC(=O)[C@H]3CCOC3)cc2s1
inactive	Cc1cc(C)cc(NC(=O)N2CCC3(CCN(C(=O)CCCC[C@@H]4SC[C@@H]5NC(=O)N[C@@H]54)C3)CC2)c1
inactive	C=CCOC(=O)NCCSc1nc2ccc(NC(=O)Cc3nc(C)sc3C)cc2s1
inactive	C=CCOC(=O)NCCSc1nc2ccc(NC(=O)c3cc(C)n(C)n3)cc2s1
inactive	COc1ccccc1NC(=O)N1CCC2(CC1)CCN(S(=O)(=O)c1sc(NC(C)=O)nc1C)C2
inactive	CN(C)c1ccc(NC(=S)N2CCC(c3nc(C(=O)NC[C@H](c4ccc[nH]4)C(F)(F)F)cs3)CC2)cc1
inactive	CC(C)(C)c1cc(O)nc(SCC(=O)N2CCCN(CC(=O)Nc3ccccc3C(C)(C)C)CC2)n1
inactive	C=CCOC(=O)NCCSc1nc2ccc(NC(=O)C(C)(C)n3cncn3)cc2s1
inactive	O=C(NCC(=O)N1CCC2(CC1)CCN(C(=S)NC[C@@H]1CCCO1)C2)c1ccco1
inactive	C=CCOC(=O)NCCSc1nc2ccc(NC(=O)CS(=O)(=O)c3ccc(C)cc3)cc2s1
inactive	CN(C)c1ccc(NC(=S)N2CCC(c3nc(C(=O)NC[C@@H]4COc5ccccc5O4)cs3)CC2)cc1
inactive	Cc1ccc(C(=O)NCCc2c[nH]c3ccccc23)c(C2CCN(C(=O)c3ccc(NC(N)=S)cc3)CC2)n1
inactive	COc1ccc(OC)c(NC(=S)NCC(=O)N[C@@H](CC(C)C)C(N)=O)c1
inactive	Cc1ccc(C(=O)NCCCn2ccnc2)c(C2CCN(C(=O)/C=C/c3cccc(O)c3)CC2)n1

Same assay, conditions: concentration not given here

inhibition [%]	Compound
33	C=CCOC(=O)NCCSc1nc2ccc(NC(=O)c3csnn3)cc2s1
18	O=C(NCC(=O)N1CCC2(CC1)CCN(C(=O)Cc1n[nH]c(=O)c3ccccc13)C2)c1ccco1
24	CC(=O)Nc1ccc(S(=O)(=O)NNC(=O)Nc2ccccc2-c2ccccc2)cc1Cl
6	Cc1ccc(C(=O)NCCc2cc3ccccc3[nH]2)c(C2CCN(C(=O)CNC(=O)Nc3ccccc3)CC2)n1
11	C=CCOC(=O)NCCSc1nc2ccc(NC(=O)[C@H]3CC(=O)c4ccccc43)cc2s1
22	C=CCOC(=O)NCCSc1nc2ccc(NC(=O)CSc3ccccn3)cc2s1
18	COc1ccc(NC(C)=O)cc1NS(=O)(=O)c1ccc(NC(C)=O)cc1
19	C=CCOC(=O)NCCSc1nc2ccc(NC(=O)CSc3nc(C)cc(C)n3)cc2s1
